Assay results as given in patent US12371454B2, “Cyclic peptide compound having Kras inhibitory action” (priority 2019, dated 2025).
Starred links: 1 amine or outer side, 2 acyl side, 3 side chain; linkers in the order of their positions; H or OH if unused. Positions of bridges follow the written chain, without caps; N, C: chain ends. Non-standard residues stand in square brackets, D forms with d. Residues, ends and D or L forms follow the SMILES beside them. *: point of attachment. hPhe(3-Cl-4-CF3) = N[C@@H](CCc1ccc(C(F)(F)F)c(Cl)c1)C(=O)O; NMePhe(4-CF3) = CN[C@@H](Cc1ccc(C(F)(F)F)cc1)C(=O)O; hPhe(4-CF3) = N[C@@H](CCc1ccc(C(F)(F)F)cc1)C(=O)O; NMePhe(4-Cl) = CN[C@@H](Cc1ccc(Cl)cc1)C(=O)O; NMePhe(3-F) = CN[C@@H](Cc1cccc(F)c1)C(=O)O; NMeGly(cPent) = CN[C@H](C(=O)O)C1CCCC1; Phe(3-I) = N[C@@H](Cc1cccc(I)c1)C(=O)O; Pro(4,4-F2) = O=C(O)[C@@H]1CC(F)(F)CN1; NMeCha = CN[C@@H](CC1CCCCC1)C(=O)O; Gly(N-(CH2)2OEt) = CCOCCNCC(=O)O; Hyp = O=C(O)[C@@H]1C[C@@H](O)CN1; NMeChg = CN[C@H](C(=O)O)C1CCCCC1; NMeF = CN[C@@H](Cc1ccccc1)C(=O)O; NMeI = CC[C@H](C)[C@H](NC)C(=O)O; NMeβAla = CN(CCC(=O)[*:2])[*:1]; NMeD = CN[C@@H](CC(=O)O)C(=O)O; NMeL = CN[C@@H](CC(C)C)C(=O)O; NMeNle = CCCC[C@H](NC)C(=O)O; NMeV = CN[C@H](C(=O)O)C(C)C; d(β3hA) = C[C@@H](N)CC(=O)O; NMeS = CN[C@@H](CO)C(=O)O; Morpholide = C1CN(*)CCO1; NMeA = CN[C@@H](C)C(=O)O; Nle = CCCC[C@H](N)C(=O)O; Piperidide = C1CCN(*)CC1; Pyrrolidide = C1CCN(*)C1; dNMeA = CN[C@H](C)C(=O)O; Ac5c = NC1(C(=O)O)CCCC1; Aze = O=C(O)[C@@H]1CCN1; Ac4c = NC1(C(=O)O)CCC1; CH2CMe2OH = CC(C)(O)C*; Sar = CNCC(=O)O

Each compound was assayed against T1, Kras and SOS1 (biotin-tagged human Kras loaded with GDP, His-tagged human SOS1) (Homo sapiens, UniProt P01116, G12D) (assay: Protein-protein interaction inhibition between Kras and SOS1 (KrasGl2D-SOS PPI) using AlphaScreen). Details: AlphaScreen; biotin-tagged human Kras loaded with GDP, His-tagged human SOS1; read-out: KRAS G12D-SOS PPI IC50.
T1 construct: made in house; host or cells: E. coli (stated for Kras only)
T1 sequence (P01116 1-188 isoform P01116-2 G12D): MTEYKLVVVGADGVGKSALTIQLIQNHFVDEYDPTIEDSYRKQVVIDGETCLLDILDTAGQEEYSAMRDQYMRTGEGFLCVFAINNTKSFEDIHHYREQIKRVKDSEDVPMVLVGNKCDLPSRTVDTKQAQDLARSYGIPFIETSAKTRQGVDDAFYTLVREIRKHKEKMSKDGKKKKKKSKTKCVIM
Format: binding
Summary of the method: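 Energy transfer from nickel-chelate donor beads bound to His-SOS1 to streptavidin acceptor beads bound to biotin-Kras, expressed in E. coli and loaded with GDP after purification, was monitored. Donors were excited at 680 nm; singlet oxygen reaching acceptors gave emission read at 520-620 nm.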
`CC[C@H](C)[C@@H]1NC(=O)[C@H](C)N(C)C(=O)C[C@@H](C)NC(=O)[C@H](C2CCCC2)N(C)C(=O)C2(CCCC2)NC(=O)[C@@H]2CCCN2C(=O)[C@H](CCc2ccc(C(F)(F)F)c(Cl)c2)NC(=O)[C@@H](C)N(C)C(=O)[C@H](C)N(C)C(=O)[C@@H]2CCN2C(=O)[C@H](C)N(C)C1=O` [Compound 396] (cyclo([Ac5c][NMeGly(cPent)][d(β3hA)][NMeA]I[NMeA][Aze][NMeA][dNMeA][hPhe(3-Cl-4-CF3)]P)) showed an IC50 of 220 nM. Compound `CC[C@H](C)[C@@H]1NC(=O)CCN(C)C(=O)[C@H](COCC(C)(C)O)N(C)C(=O)[C@H](C2CCCC2)N(C)C(=O)C2(CCCC2)NC(=O)[C@@H]2CCCN2C(=O)[C@H](CCc2ccc(C(F)(F)F)c(Cl)c2)NC(=O)CN(C)C(=O)[C@H](CC2CCCCC2)N(C)C(=O)CN(C)C(=O)CN(C)C1=O` [Compound 244] (cyclo([Ac5c][NMeGly(cPent)][NMeS](CH2CMe2OH)[NMeβAla]I[Sar][Sar][NMeCha][Sar][hPhe(3-Cl-4-CF3)]P)) has an IC50 of 140 nM. Compound `CC[C@H](C)[C@@H]1NC(=O)[C@H](C)N(C)C(=O)C[C@@H](C)NC(=O)[C@H](CC(C)C)N(C)C(=O)[C@H](Cc2ccccc2)N(C)C(=O)[C@@H]2CCCN2C(=O)[C@H](CCc2ccc(C(F)(F)F)cc2)NC(=O)CN(C)C(=O)[C@H](Cc2ccc(Cl)cc2)N(C)C(=O)CN(C)C(=O)CN(C)C1=O` [Compound 751] (cyclo(I[Sar][Sar][NMePhe(4-Cl)][Sar][hPhe(4-CF3)]P[NMeF][NMeL][d(β3hA)][NMeA])) has an IC50 of 82 nM. For `CCO[C@@H]1C[C@H]2C(=O)NC3(CCCC3)C(=O)N(C)[C@@H]([C@@H](C)CC)C(=O)N(C)[C@H](C(=O)N3CCOCC3)CC(=O)N(C)[C@@H](CC(C)C)C(=O)N[C@@H]([C@@H](C)CC)C(=O)N(C)[C@@H](C)C(=O)N3CC[C@H]3C(=O)N(C)[C@@H](Cc3ccc(C(F)(F)F)cc3)C(=O)N(C)CC(=O)N[C@@H](CCc3ccc(C(F)(F)F)c(Cl)c3)C(=O)N2C1` [Compound 1330] ([NMeL]I[NMeA][Aze][NMePhe(4-CF3)][Sar][hPhe(3-Cl-4-CF3)][Hyp](Et)[Ac5c][NMeI][NMeD]-Morpholide; lactam N-11), the IC50 was 0.62 nM. With `CC[C@H](C)[C@@H]1NC(=O)[C@H](CC(C)C)N(C)C(=O)C[C@@H](C(=O)N2CCCC2)N(C)C(=O)[C@H](C2CCCC2)N(C)C(=O)C2(CCCC2)NC(=O)[C@@H]2CC(F)(F)CN2C(=O)[C@H](CCc2ccc(C(F)(F)F)c(Cl)c2)NC(=O)CN(C)C(=O)[C@H](CC2CCCCC2)N(C)C(=O)CN(C)C(=O)CN(C)C1=O` [Compound 1270] ([NMeL]I[Sar][Sar][NMeCha][Sar][hPhe(3-Cl-4-CF3)][Pro(4,4-F2)][Ac5c][NMeGly(cPent)][NMeD]-Pyrrolidide; lactam N-11) the IC50 was 0.61 nM. `CCCC[C@@H]1NC(=O)[C@H](Cc2cccc(I)c2)NC(=O)CN(C)C(=O)[C@H](Cc2ccc(Cl)cc2)N(C)C(=O)CN(C)C(=O)CN(C)C(=O)[C@H]([C@@H](C)CC)NC(=O)[C@H](CC(C)C)N(C)C(=O)C[C@@H](C(=O)N2CCCCC2)N(C)C(=O)[C@H](CC(C)C)NC(=O)[C@H](Cc2cccc(F)c2)N(C)C1=O` [Compound 483] ([NMeL]I[Sar][Sar][NMePhe(4-Cl)][Sar][Phe(3-I)][Nle][NMePhe(3-F)]L[NMeD]-Piperidide; lactam N-11) was tested, and the IC50 was 17 nM. Compound `CCOCCN1CC(=O)N(C)CC(=O)N(C)[C@@H](CC2CCCCC2)C(=O)N(C)CC(=O)N[C@@H](CCc2ccc(C(F)(F)F)c(Cl)c2)C(=O)N2CCC[C@H]2C(=O)NC2(CCCC2)C(=O)N(C)[C@@H](C(C)C)C(=O)N[C@H](C)CC(=O)N(C)[C@@H](CC(C)C)C(=O)N[C@@H]([C@@H](C)CC)C1=O` [Compound 329] (cyclo([Ac5c][NMeV][d(β3hA)][NMeL]I[Gly(N-(CH2)2OEt)][Sar][NMeCha][Sar][hPhe(3-Cl-4-CF3)]P)) has an IC50 of 40 nM. For `CCCC[C@H]1C(=O)N(C)[C@H](C(=O)N2CCCCC2)CC(=O)N(C)[C@@H](CC(C)C)C(=O)N[C@@H]([C@@H](C)CC)C(=O)N(C)CC(=O)N(C)CC(=O)N(C)[C@@H](CC2CCCCC2)C(=O)N(C)CC(=O)N[C@@H](CCc2ccc(C(F)(F)F)c(Cl)c2)C(=O)N2CCC[C@H]2C(=O)NC2(CCCC2)C(=O)N1C` [Compound 1815] ([NMeL]I[Sar][Sar][NMeCha][Sar][hPhe(3-Cl-4-CF3)]P[Ac5c][NMeNle][NMeD]-Piperidide; lactam N-11), the IC50 was 2.5 nM. `CC[C@H](C)[C@@H]1NC(=O)[C@H](CC(C)C)N(C)C(=O)C[C@@H](C(=O)N2CCCC2)N(C)C(=O)[C@H](C2CCCCC2)N(C)C(=O)C2(CCC2)NC(=O)[C@@H]2CC(F)(F)CN2C(=O)[C@H](CCc2ccc(C(F)(F)F)c(Cl)c2)NC(=O)CN(C)C(=O)[C@H](CC2CCCCC2)N(C)C(=O)CN(C)C(=O)CN(C)C1=O` [Compound 1163] ([NMeL]I[Sar][Sar][NMeCha][Sar][hPhe(3-Cl-4-CF3)][Pro(4,4-F2)][Ac4c][NMeChg][NMeD]-Pyrrolidide; lactam N-11) showed an IC50 of 0.46 nM.
